Molecular target: thrombin (Homo sapiens, UniProt P00734)
Assay: Ki determinations thrombin (fluorogenic substrate Tosyl-GPR-AMC)
Type: biochemical
Conditions: 20 °C; Tosyl-GPR-AMC 20 µM; thrombin concentration of 100 pM; HBS pH 7.4
Description: The Ki determinations are carried out at 20 °C with the fluorogenic substrate Tosyl-GPR-AMC (Bachem, Heidelberg, Germany; λexc = 370 nm, λem = 450 nm) at a thrombin concentration of 100 pM in HBS pH 7.4. The substrate is added to a final concentration of 20 µM in a total assay volume of 100 µl. The enzymatic reaction is started by addition of substrate. The emission at 450 nm is monitored in 1 minute intervals for 10 minutes using a polarstar reader (BMG Laboratories, Offenburg, Germany). Initial velocities of the control and the inhibited reactions (vo and vi) are estimated in FU/min at different compound concentrations. The inhibition constants are calculated using the Michaelis-Menten equation for competitive inhibition.

Ki: < 1000 nM
SMILES: Fc1c(NCCC2CCCCN2)ncc(Cl)c1CCNCc1n[nH]c2ccc(Cl)cc12 (stereo not shown) [example 1]

— patent EP1655296A1, “Thrombin inhibitors” (Graffinity Pharmaceuticals AG, priority 2004, dated 2006)
